The record followed here is US12637471B2, “Heterocyclic compounds, compositions, methods of preparation and uses thereof” (Organon R&D Finland Ltd, priority 2021, dated 2026).

Format in all cases: biochemical
Assay [1] deals with T1, Recombinant human AKR1C3 (17β-HSD5) protein (Homo sapiens, UniProt P42330).
T1 construct: made in house; host or cells: E. coli
T1 sequence (P42330 1-323): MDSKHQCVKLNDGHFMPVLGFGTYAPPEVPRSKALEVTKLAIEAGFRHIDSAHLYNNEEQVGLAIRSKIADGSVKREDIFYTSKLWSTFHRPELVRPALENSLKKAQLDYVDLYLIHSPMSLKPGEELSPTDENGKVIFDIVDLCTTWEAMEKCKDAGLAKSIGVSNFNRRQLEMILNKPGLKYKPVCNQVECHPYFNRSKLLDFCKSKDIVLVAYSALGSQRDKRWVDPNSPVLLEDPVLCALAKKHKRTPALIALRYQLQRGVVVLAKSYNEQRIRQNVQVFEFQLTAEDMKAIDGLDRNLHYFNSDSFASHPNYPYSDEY
Kind of assay: Inhibition of AKR1C3 (17β-hydroxysteroid dehydrogenase type 5) enzyme, fluorescence assay. The conditions noted are these: inhibitor at 500 nM. Summed up:
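Percent inhibition at 500 nM compound, derived from substrate conversion; product alcohol measured by fluorescence (ex 420, em 510 nm) against a 1 μM–10 nM standard curve. Reaction: 27 nM recombinant AKR1C3, 1 μM ketone substrate, 1 mM NADPH, phosphate/EDTA buffer pH 7.4, 1% DMSO, RT for 60–120 min.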

The target in assay [2] is T2, Recombinant human aldo-keto reductase family 1 member C2 (AKR1C2) protein (Homo sapiens, UniProt P52895).
T2 construct: made in house; host or cells: Sf-9 insect cells (baculovirus)
T2 sequence (P52895 1-323): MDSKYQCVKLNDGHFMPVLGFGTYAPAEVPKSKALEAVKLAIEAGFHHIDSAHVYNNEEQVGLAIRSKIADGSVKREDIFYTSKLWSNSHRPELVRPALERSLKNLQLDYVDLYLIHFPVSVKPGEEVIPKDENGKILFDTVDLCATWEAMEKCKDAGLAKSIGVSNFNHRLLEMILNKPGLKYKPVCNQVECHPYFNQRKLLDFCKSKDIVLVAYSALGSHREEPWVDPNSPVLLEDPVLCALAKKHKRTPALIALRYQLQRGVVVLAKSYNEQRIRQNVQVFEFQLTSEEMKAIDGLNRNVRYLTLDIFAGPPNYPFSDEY
Put plainly: Inhibition of the aldo-keto reductase family 1 member C2, 3H-dihydrotestosterone conversion. The conditions noted are these: inhibitor at 10 μM. The procedure, abridged: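 Single-point screen at 10 μM inhibitor, 1% DMSO: [3H]DHT (6.25 nM) reduction to 3α-diol by baculovirus-made AKR1C2 (13.6 nM), pH 7.4 phosphate buffer, 1 mM NADPH, 37 °C for 45 min. Radio-UPLC quantified product versus substrate to give percent inhibition.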

The target in assay [3] is T3, 17β-Hydroxysteroid Dehydrogenase Type 2 Enzyme (17β-HSD2) (Homo sapiens, UniProt P37059).
T3 construct: made in house; host or cells: Sf-9 insect cells (baculovirus)
T3 sequence (P37059 1-387): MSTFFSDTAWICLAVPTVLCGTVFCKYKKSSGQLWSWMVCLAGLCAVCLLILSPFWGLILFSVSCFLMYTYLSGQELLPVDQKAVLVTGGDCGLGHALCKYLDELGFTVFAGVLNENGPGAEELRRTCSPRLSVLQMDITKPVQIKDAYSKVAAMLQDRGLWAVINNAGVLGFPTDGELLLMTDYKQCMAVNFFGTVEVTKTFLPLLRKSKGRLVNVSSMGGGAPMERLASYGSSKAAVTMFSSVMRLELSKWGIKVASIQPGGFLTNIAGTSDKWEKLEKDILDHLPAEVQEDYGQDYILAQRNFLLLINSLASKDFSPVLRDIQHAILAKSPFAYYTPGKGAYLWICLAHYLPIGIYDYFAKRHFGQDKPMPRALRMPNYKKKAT
Kind of assay: Inhibition of the 17β-hydroxysteroid dehydrogenase type 2 enzyme, 3H-testosterone conversion. Particulars: inhibitor at 10 μM. The procedure, abridged:
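Single-point screen at 10 μM inhibitor, 1% DMSO: Sf-9-expressed human enzyme (105 nM), NAD 1 mM, ³H-labelled testosterone 56.25 nM, pH 8.5 phosphate/EDTA buffer, 30 min, room temperature. After TCA quench, substrate and product radioactivity quantified by UPLC with scintillation detection; inhibition percent from conversion.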

A word on the inhibition: it is the change of the read-out against control, counted positive when it falls. As to `CCCOC1CCN(C(=O)N2CCC(=C(C#N)c3ccc(Cl)cc3)CC2)CC1` [Compound 134, 2-(4-chlorophenyl)-2-(1-(4-propoxypiperidine-1-carbonyl)piperidin-4-ylidene)acetonitrile], the inhibition at 0.5 µM in assay [1] is 98%. The inhibition at 10 µM worked out at 13% in assay [2] and 12% in assay [3].

`N#CC(=C1CCN(C(=O)N2CCc3nocc3C2)CC1)c1ccc(F)c(F)c1` [Compound 32, 2-(3,4-difluorophenyl)-2-(1-(4,5,6,7-tetrahydroisoxazolo[4,3-c]pyridine-5-carbonyl)piperidin-4-ylidene)acetonitrile]: the inhibition at 0.5 µM in assay [1] worked out at 97%. Besides, the inhibition at 10 µM worked out at 17% in assay [2] and 4% in assay [3].

As to `CC(O)C1CCN(C(=O)N2CCC(=C(C#N)c3ccc(F)cc3)CC2)CC1` (stereo not drawn) [Compound 21, 2-(4-fluorophenyl)-2-(1-(4-(1-hydroxyethyl)piperidine-1-carbonyl)piperidin-4-ylidene)acetonitrile], in assay [1], the inhibition at 0.5 µM worked out at 95%. The inhibition at 10 µM in assay [2] is 9%; in assay [3], 20%.

Turning to `CCN(CC)C(=O)N1CCC(=C(C#N)c2ccc(C(F)(F)F)cc2)CC1` [Compound 171, 4-(cyano(4-(trifluoromethyl)phenyl)methylene)-N,N-diethylpiperidine-1-carboxamide], the inhibition at 0.5 µM in assay [1] amounted to 99%. Also, the inhibition at 10 µM was 3% in assay [2] and 17% in assay [3].

Turning to `N#CC(=C1CCN(C(=O)N2CCc3[nH]ncc3C2)CC1)c1cccc2cn[nH]c12` [Compound 71, 2-(1H-indazol-7-yl)-2-(1-(4,5,6,7-tetrahydro-1H-pyrazolo[4,3-c]pyridine-5-carbonyl)piperidin-4-ylidene)acetonitrile], the inhibition at 0.5 µM in assay [1] amounted to 99%. Further, the results for the inhibition at 10 µM in assay [2] and in assay [3] were 12% and 29%, respectively.

Turning to `CN(C(=O)N1CCC(=C(C#N)c2ccc(Cl)s2)CC1)C1COC1` [Compound 103, 4-((5-chlorothiophen-2-yl)(cyano)methylene)-N-methyl-N-(oxetan-3-yl)piperidine-1-carboxamide], the inhibition at 0.5 µM in assay [1] was found to be 95%. Besides, the inhibition at 10 µM in assay [2] was 19%; in assay [3], -4%.

Turning to `N#CC(=C1CCN(C(=O)N2CC(CO)C2)CC1)c1ccc(F)cc1` [Compound 85, 2-(4-fluorophenyl)-2-(1-(3-(hydroxymethyl)azetidine-1-carbonyl)piperidin-4-ylidene)acetonitrile], the inhibition at 0.5 µM in assay [1] worked out at 72%. The inhibition at 10 µM in assay [2] stood at 9%; in assay [3], 27%.

Take `Cn1ncc2cccc(C(C#N)=C3CCN(C(=O)N4CCC(CO)CC4)CC3)c21` [Compound 118, 2-(1-(4-(hydroxymethyl)piperidine-1-carbonyl)piperidin-4-ylidene)-2-(1-methyl-1H-indazol-7-yl)acetonitrile]: the inhibition at 0.5 µM in assay [1] came out at 96%. Further, the inhibition at 10 µM was determined as 14% in assay [2] and 30% in assay [3].

As for `COC[C@@H]1CCCN1C(=O)N1CCC(=C(C#N)c2ccc(F)cc2)CC1` [Compound 8, (S)-2-(4-fluorophenyl)-2-(1-(2-(methoxymethyl)pyrrolidine-1-carbonyl)piperidin-4-ylidene)acetonitrile], the inhibition at 0.5 µM in assay [1] was found to be 98%. Besides, the inhibition at 10 µM amounted to 7% in assay [2] and 8% in assay [3].

For the compound `N#CC(=C1CCN(C(=O)N2CCC(O)CC2)CC1)c1cncc(Cl)c1` [Compound 86, 2-(5-chloropyridin-3-yl)-2-(1-(4-hydroxypiperidine-1-carbonyl)piperidin-4-ylidene)acetonitrile], the inhibition at 0.5 µM in assay [1] is 80%. Further, the results for the inhibition at 10 µM in assay [2] and in assay [3] were 0% and 27%, respectively.

Regarding `N#CC(=C1CCN(C(=O)N2CCC(O)CC2)CC1)c1ccc(Cl)cc1` [Compound 18, 2-(4-chlorophenyl)-2-(1-(4-hydroxypiperidine-1-carbonyl)piperidin-4-ylidene)acetonitrile], the inhibition at 0.5 µM in assay [1] was found to be 99%. The inhibition at 10 µM in assay [2] was determined as 7%; in assay [3], 11%.

As for `N#CC(=C1CCN(C(=O)N2CCC(CO)CC2)CC1)c1ccc(F)c(F)c1` [Compound 33, 2-(3,4-difluorophenyl)-2-(1-(4-(hydroxymethyl)piperidine-1-carbonyl)piperidin-4-ylidene)acetonitrile], in assay [1], the inhibition at 0.5 µM is 97%. In addition, the inhibition at 10 µM in assay [2] amounted to 16%; in assay [3], 7%.

For `COC1CCN(C(=O)N2CCC(=C(C#N)c3ccc(F)cc3F)CC2)CC1` [Compound 91, 2-(2,4-difluorophenyl)-2-(1-(4-methoxypiperidine-1-carbonyl)piperidin-4-ylidene)acetonitrile], in assay [1], the inhibition at 0.5 µM turned out to be 99%. The inhibition at 10 µM in assay [2] and in assay [3] was 23% throughout.

For `N#CC(=C1CCN(C(=O)N2CCC(CO)CC2)CC1)c1ccc(Cl)cc1` [Compound 74, 2-(4-chlorophenyl)-2-(1-(4-(hydroxymethyl)piperidine-1-carbonyl)piperidin-4-ylidene)acetonitrile], the inhibition at 0.5 µM in assay [1] is 98%. Besides, the inhibition at 10 µM in assay [2] was 9%; in assay [3] it was 17%.

Consider `CCOC1CCN(C(=O)N2CCC(=C(C#N)c3ccc(Cl)s3)CC2)CC1` [Compound 125, 2-(5-chlorothiophen-2-yl)-2-(1-(4-ethoxypiperidine-1-carbonyl)piperidin-4-ylidene)acetonitrile], for which the inhibition at 0.5 µM in assay [1] was determined as 97%. Besides, the figures for the inhibition at 10 µM in assay [2] and in assay [3] were 18% and 17%, respectively.

`N#CC(=C1CCN(C(=O)N2CCC(CO)CC2)CC1)c1ccc(Cl)cn1` [Compound 65, 2-(5-chloropyridin-2-yl)-2-(1-(4-(hydroxymethyl)piperidine-1-carbonyl)piperidin-4-ylidene)acetonitrile]: the inhibition at 0.5 µM in assay [1] is 97%. For the same compound, the inhibition at 10 µM in assay [2] and in assay [3] was 2% each time.

`N#CC(=C1CCN(C(=O)N2CCC(CCCO)CC2)CC1)c1ccc(F)cc1` [Compound 142, 2-(4-fluorophenyl)-2-(1-(4-(3-hydroxypropyl)piperidine-1-carbonyl)piperidin-4-ylidene)acetonitrile]: the inhibition at 0.5 µM in assay [1] worked out at 91%. Also, the inhibition at 10 µM in assay [2] came to 3%; in assay [3], 4%.

For the compound `N#CC(=C1CCN(C(=O)N2CCC(O)CC2)CC1)c1n[nH]c2ccccc12` [Compound 70, 2-(1-(4-hydroxypiperidine-1-carbonyl)piperidin-4-ylidene)-2-(1H-indazol-3-yl)acetonitrile], in assay [1], the inhibition at 0.5 µM was found to be 97%. The inhibition at 10 µM turned out to be 5% in assay [2] and 11% in assay [3].

Consider `CCOC1CCN(C(=O)N2CCC(=C(C#N)c3ccc(F)cc3F)CC2)CC1` [Compound 137, 2-(2,4-difluorophenyl)-2-(1-(4-ethoxypiperidine-1-carbonyl)piperidin-4-ylidene)acetonitrile], for which, in assay [1], the inhibition at 0.5 µM turned out to be 97%. For the same compound, the inhibition at 10 µM in assay [2] came out at 18%; in assay [3], 6%.

On to `N#CC(=C1CCN(C(=O)N2CCn3cncc3C2)CC1)c1ccc(F)cc1F` [Compound 123, 2-(2,4-difluorophenyl)-2-(1-(5,6,7,8-tetrahydroimidazo[1,5-a]pyrazine-7-carbonyl)piperidin-4-ylidene)acetonitrile], for which the inhibition at 0.5 µM in assay [1] was 99%. Moreover, the inhibition at 10 µM stood at 33% in assay [2] and 2% in assay [3].
